Tests used:
[1] = system: Eschericia coli (E. Coli) strain ATCC25922; assay: standard microdilution assay, minimum inhibitory concentration (MIC); format: cell-based; settings: Escherichia coli, ATCC25922; Table 2a
Outline: (§1)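 Compounds were scored +/− against a 16 µg/mL MIC cutoff, using CLSI-based microdilution with QC reference strains. The organisms were S. aureus 11540 and E. coli ATCC25922.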

[2] = system: Staphylococcus aureus (S. aureus) 11540 strain; assay: as above; format: cell-based; settings: Table 2a
Outline: as §1

| MIC [1] [µg/mL] | MIC [2] [µg/mL] | SMILES |
| --- | --- | --- |
| ≤ 16 | ≤ 16 | CC(=N)NCC[C@@H](CNC(=N)N)OCc1ccc(-n2cc3cc(-c4cc(CCC[C@H](C)N)cc(Cl)c4F)[nH]c3nc2=O)cc1 [Compound 172] |
| ≤ 16 | ≤ 16 | CC(=N)NCC[C@H](CN)OCc1ccc(-n2cc3cc(-c4cc(CCC[C@H](C)N)cc(Cl)c4F)[nH]c3nc2=O)cc1 [Compound 176] |
| ≤ 16 | ≤ 16 | CC(=N)NCC[C@@H](CN)OCc1ccc(-n2cc3cc(-c4cc(CCC[C@H](C)N)cc(Cl)c4F)[nH]c3nc2=O)cc1 [Compound 178] |

The next lines start with the compound.

| SMILES | MIC [1] [µg/mL] | MIC [2] [µg/mL] |
| --- | --- | --- |
| CC(=N)NCC[C@@H](CNC(C)=N)OCc1ccc(-n2cc3cc(-c4cc(CCC[C@H](C)N)cc(Cl)c4F)[nH]c3nc2=O)cc1 [Compound 173] | ≤ 16 | ≤ 16 |
| C[C@H](N)CCCc1cc(Cl)c(F)c(-c2cc3cn(-c4ccc(CO[C@@H](CCNC(=N)N)CNC(=N)N)cc4)c(=O)nc3[nH]2)c1 [Compound 174] | ≤ 16 | ≤ 16 |
| CC(=N)NC[C@H](CCNC(=N)N)OCc1ccc(-n2cc3cc(-c4cc(CCC[C@H](C)N)cc(Cl)c4F)[nH]c3nc2=O)cc1 [Compound 175] | ≤ 16 | ≤ 16 |
| C[C@H](N)CCCc1cc(Cl)c(F)c(-c2cc3cn(-c4ccc(CO[C@H](CCN5CCNC5=O)CNC(=N)N)cc4)c(=O)nc3[nH]2)c1 [Compound 177] | ≤ 16 | ≤ 16 |

Reference: patent US10947237B2, “Antimicrobial compounds and methods of making and using the same” (BIOVERSYS AG, priority 2015, dated 2021)
